Reference: ChEMBL document CHEMBL1133230, “1-Aminomethylisoquinoline-4-carboxylates as novel dipeptidylpeptidase IV inhibitors” (Bioorg Med Chem Lett, 2000)

Molecular target: Dipeptidyl peptidase 4 (Homo sapiens, UniProt P27487)
Assay: In vitro inhibition of Dipeptidylpeptidase IV from Caco-2 (human colon carcinoma) cells.
Format: cell-based

Dipeptidyl peptidase 4, sequence (P27487 whole entry): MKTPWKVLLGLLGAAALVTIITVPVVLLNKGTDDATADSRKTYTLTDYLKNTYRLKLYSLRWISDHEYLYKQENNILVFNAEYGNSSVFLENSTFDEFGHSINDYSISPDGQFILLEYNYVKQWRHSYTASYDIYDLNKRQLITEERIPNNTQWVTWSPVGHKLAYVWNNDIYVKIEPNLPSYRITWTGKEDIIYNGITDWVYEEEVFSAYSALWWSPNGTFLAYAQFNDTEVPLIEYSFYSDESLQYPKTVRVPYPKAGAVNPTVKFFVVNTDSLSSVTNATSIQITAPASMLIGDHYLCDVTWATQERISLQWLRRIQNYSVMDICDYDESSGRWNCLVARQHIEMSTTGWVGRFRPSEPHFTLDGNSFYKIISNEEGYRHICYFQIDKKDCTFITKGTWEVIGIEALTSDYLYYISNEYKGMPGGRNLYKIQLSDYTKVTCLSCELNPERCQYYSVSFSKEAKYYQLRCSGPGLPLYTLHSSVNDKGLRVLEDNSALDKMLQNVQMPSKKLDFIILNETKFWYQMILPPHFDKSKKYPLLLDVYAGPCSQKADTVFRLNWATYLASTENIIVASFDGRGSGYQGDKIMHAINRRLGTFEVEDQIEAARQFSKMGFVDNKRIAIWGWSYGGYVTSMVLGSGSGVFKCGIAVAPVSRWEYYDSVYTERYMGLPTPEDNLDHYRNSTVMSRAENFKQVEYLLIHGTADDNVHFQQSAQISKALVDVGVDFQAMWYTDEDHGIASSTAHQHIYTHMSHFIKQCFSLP

| Compound | IC50 [µM] |
| --- | --- |
| CCOC(=O)CCc1cnc(CN)c2cc(OC)c(OC)cc12 | 52.6 |
| CCOC(=O)/C=C/c1cnc(CN)c2cc(OC)c(OC)cc12 | 18 |
| CCOC(=O)c1cnc(CN)c2c(OC)c(OC)c(OC)cc12 | 1.1 |
| CCOC(=O)c1cnc(CN)c2cc(OC)c(OC)c(OC)c12 | 18 |
| CCCNC(=O)c1cnc(CN)c2cc(OC)c(OC)cc12 | 51.4 |
| COc1cc2c(C=O)cnc(CN)c2cc1OC | 277 |
| CCOC(=O)Cc1cnc(CN)c2cc(OC)c(OC)cc12 | 17 |
| CCOC(=O)c1cnc(CN)c2ccc(OC)cc12 | 207 |
| CCOC(=O)c1cnc(CN)c2cc(O)c(OC)cc12 | 14 |
| CCOC(=O)c1cnc(CN)c2c(OC)ccc(OC)c12 | 2.4 |
| CCOC(=O)Nc1cnc(CN)c2cc(OC)c(OC)cc12 | 2.3 |
| COc1cc2c(CO)cnc(CN)c2cc1OC | 31.8 |
| COc1cc2c(C(=O)O)cnc(CN)c2cc1OC | 103 |

More lines, now with the values ahead:

| IC50 [µM] | Compound |
| --- | --- |
| 746 | CCOC(=O)c1cnc(CCN)c2cc(OC)c(OC)cc12 |
| 8.4 | CCCOc1cc2c(CN)ncc(C(=O)OCC)c2cc1OC |
| 948 | CCOC(=O)c1cnc(CN(C)C)c2cc(OC)c(OC)cc12 |
| 3.4 | CCOC(=O)c1cnc(CN)c2cc(OC)c(OC)cc12 |
| 4.7 | CCOC(=O)c1cnc(CN)c2cc(OC)c(OCC)cc12 |
| 731 | CCOC(=O)c1cnc(CNC)c2cc(OC)c(OC)cc12 |
| 6.7 | CCOC(=O)c1cnc(CN)c2cc(OCC)c(OC)cc12 |
| 170 | COc1cc2c(C(N)=O)cnc(CN)c2cc1OC |
